This passage reports IC50, INH and Activity results from ChEMBL document CHEMBL4007425, “Drug Repurposing of Histone Deacetylase Inhibitors That Alleviate Neutrophilic Inflammation in Acute Lung Injury and Idiopathic Pulmonary Fibrosis via Inhibiting Leukotriene A4 Hydrolase and Blocking LTB4 Biosynthesis” (J Med Chem, 2017).

Assay [1] addresses T1, Leukotriene A-4 hydrolase (Homo sapiens, UniProt P09960).
T1 sequence (P09960 whole entry): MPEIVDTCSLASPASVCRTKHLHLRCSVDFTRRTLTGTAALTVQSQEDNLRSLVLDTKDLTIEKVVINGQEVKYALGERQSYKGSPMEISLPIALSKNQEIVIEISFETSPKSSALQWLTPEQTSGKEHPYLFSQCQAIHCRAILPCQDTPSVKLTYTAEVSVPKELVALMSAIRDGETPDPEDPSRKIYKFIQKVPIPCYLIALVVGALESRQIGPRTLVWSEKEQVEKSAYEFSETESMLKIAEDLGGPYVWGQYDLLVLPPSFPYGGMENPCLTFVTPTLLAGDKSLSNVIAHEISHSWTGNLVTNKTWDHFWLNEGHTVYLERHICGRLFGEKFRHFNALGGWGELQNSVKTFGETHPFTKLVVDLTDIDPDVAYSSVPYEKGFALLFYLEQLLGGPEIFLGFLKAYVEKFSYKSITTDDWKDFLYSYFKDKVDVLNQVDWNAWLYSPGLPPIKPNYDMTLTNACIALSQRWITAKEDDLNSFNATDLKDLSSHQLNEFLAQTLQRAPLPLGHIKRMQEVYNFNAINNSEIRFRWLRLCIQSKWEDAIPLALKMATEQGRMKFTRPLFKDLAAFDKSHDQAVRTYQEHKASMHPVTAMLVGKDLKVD
Description: Inhibition of recombinant human LTA4H Epoxide Hydrolase expressed in Escherichia coli BL21 (DE3) pLysS preincubated for 10 mins followed by addition of LTA4 as substrate measured after 15 mins by reverse-phase HPLC analysis.

For assay [2], the target named is T2, Polyunsaturated fatty acid lipoxygenase ALOX12 (Homo sapiens) (UniProt P18054).
T2 sequence (whole entry): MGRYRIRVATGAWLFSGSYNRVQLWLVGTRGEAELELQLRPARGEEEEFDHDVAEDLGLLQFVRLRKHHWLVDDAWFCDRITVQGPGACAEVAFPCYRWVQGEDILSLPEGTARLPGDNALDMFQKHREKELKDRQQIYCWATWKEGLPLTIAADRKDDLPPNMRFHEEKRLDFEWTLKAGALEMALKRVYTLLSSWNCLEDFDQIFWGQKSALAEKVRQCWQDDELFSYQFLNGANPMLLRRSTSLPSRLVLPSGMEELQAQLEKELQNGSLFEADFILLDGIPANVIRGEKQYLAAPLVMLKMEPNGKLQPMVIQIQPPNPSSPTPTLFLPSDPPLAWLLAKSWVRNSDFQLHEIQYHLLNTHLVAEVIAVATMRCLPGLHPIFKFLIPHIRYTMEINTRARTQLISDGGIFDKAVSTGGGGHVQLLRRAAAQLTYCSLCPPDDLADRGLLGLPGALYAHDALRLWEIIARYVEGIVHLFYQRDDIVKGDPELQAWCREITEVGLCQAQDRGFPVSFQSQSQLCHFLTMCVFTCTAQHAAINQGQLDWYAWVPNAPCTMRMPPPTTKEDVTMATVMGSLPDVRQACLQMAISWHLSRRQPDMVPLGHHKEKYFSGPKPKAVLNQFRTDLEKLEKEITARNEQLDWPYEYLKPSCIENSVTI
In words: Inhibition of recombinant human N-terminal His-tagged 12-LOX expressed in Escherichia coli assessed as conversion of arachidonic acid to HETEs measured for 300 secs by UV-visible spectrophotometric analysis.

In assay [3] the test system is Mus musculus. Description: Anti-inflammatory activity in LPS-induced C57BL/6 mouse model of acute lung injury assessed as reduction in neutrophil infiltration by measuring MPO activity at 10 to 50 mg/kg, ip pretreated for 1 hr followed LPS challenge measured after 24 hrs. Type of assay: functional, organism-based.
Assay [4] concerns Mus musculus. In words: Anti-inflammatory activity in LPS-induced C57BL/6 mouse model of acute lung injury assessed as reduction in IL-1beta mRNA level pretreated intraperitoneally for 1 hr followed LPS challenge after 24 hrs by qRT-PCR method. Type of assay: functional. For orientation: Real-time PCR tracks product formation cycle by cycle.
Assay [5] relates to Mus musculus. Description: Anti-inflammatory activity in LPS-induced C57BL/6 mouse model of acute lung injury assessed as reduction in total number of leucocytes in BALF at 25 mg/kg, ip pretreated for 1 hr followed LPS challenge measured after 24 hrs. It counts as functional, organism-based.
Assay [6] relates to Mus musculus. Description: Anti-inflammatory activity in LPS-induced C57BL/6 mouse model of acute lung injury assessed as reduction MPO activity at 25 mg/kg, ip pretreated for 1 hr followed LPS challenge measured after 24 hrs. It counts as functional, organism-based.
The test system of assay [7] is Mus musculus. In words: Anti-inflammatory activity in BLM-induced C57BL/6 mouse model of acute lung neutrophilic inflammation assessed as reduction in number of lymphocytes in BALF at 10 and 25 mg/kg, ip qd for 7 days post BLM challenge measured on day 7. It counts as functional, organism-based.
Assay [8] deals with T3, Leukotriene A-4 hydrolase (Mus musculus, UniProt P24527).
T3 sequence (P24527 whole entry): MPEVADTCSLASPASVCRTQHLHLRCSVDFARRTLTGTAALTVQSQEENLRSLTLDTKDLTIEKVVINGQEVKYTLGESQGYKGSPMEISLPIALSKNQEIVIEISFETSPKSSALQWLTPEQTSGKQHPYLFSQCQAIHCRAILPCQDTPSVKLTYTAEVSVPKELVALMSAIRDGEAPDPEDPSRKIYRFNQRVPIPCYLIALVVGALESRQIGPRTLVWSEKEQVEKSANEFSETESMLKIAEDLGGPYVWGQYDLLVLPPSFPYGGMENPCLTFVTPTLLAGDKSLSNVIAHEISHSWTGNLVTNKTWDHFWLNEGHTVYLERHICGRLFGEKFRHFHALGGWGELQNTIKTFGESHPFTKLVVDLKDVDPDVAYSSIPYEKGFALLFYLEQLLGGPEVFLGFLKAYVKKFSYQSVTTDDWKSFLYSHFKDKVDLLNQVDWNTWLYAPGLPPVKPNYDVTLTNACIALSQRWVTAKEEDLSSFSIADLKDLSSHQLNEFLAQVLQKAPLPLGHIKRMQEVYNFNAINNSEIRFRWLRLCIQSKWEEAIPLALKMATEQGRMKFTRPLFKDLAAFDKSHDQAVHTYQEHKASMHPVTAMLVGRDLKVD
Description: Inhibition of LTA4H in C57BL/6 mouse assessed as reduction in LTB4 production pre-incubated for 30 mins before 5-(methylamino)-2-({(2R,3R,6S,8S,9R,11R)-3,9,11-trimethyl-8-[(1S)-1-methyl-2-oxo-2-(1H-pyrrol-2-yl)ethyl]-1,7-dioxaspiro[5.5]undec-2-yl}methyl)-1,3-benzoxazole-4-carboxylic acid stimulation for 30 mins by ELISA.

The test system of assay [9] is Mus musculus. In words: Anti-inflammatory activity in LPS-induced C57BL/6 mouse model of acute lung injury assessed as intact alveolar structure at 10 to 50 mg/kg, ip pretreated for 1 hr followed LPS challenge measured after 24 hrs by hematoxylin and eosin staining based microscopy. Type of assay: functional, organism-based.
For assay [10], the system named is Mus musculus. Description: Anti-inflammatory activity in BLM-induced C57BL/6 mouse model of acute lung injury assessed as reduction in IL-1beta level in BALF at 10 and 25 mg/kg, ip qd for 7 days post BLM challenge measured on day 7 by ELISA. Type of assay: functional, organism-based. In general terms: In an ELISA, binding on a coated surface is turned into a signal by an enzyme label.

Assay [11] concerns Mus musculus. Description: Anti-inflammatory activity in BLM-induced C57BL/6 mouse model of acute lung injury assessed as reduction in IL-6 level in BALF at 10 and 25 mg/kg, ip qd for 7 days post BLM challenge measured on day 7 by ELISA. Type of assay: functional, organism-based.

The structures appear in SMILES notation. pIC50: −log10 of the molar value. Activity calls are given as the source filed them. No cut-off for these calls is given here. Bounds are passed on as bounds.

As to `O=C(CCCCCCC(=O)Nc1ccccc1)NO` [VORINOSTAT], the values for the pIC50 in assay [1] and in assay [8] were 5.12 and 5.21, respectively. Also, the INH in assay [2] was > 50 µM. Further, the outcome in the assay with Mus musculus [3], in the assay with Mus musculus [5], in the assay on Mus musculus [6], in the assay with Mus musculus [7] and in the assay on Mus musculus [9] was Active. In addition, the Activity entry with Mus musculus [4] was “Dose-dependent effect”.

Consider `CN(C)c1ccc(C(=O)NCCCCCCC(=O)NO)cc1`, for which the pIC50 in assay [1] is 6.17; in assay [8] it was 6.10. Besides, the INH in assay [2] was > 50 µM. Further, the result in the assay on Mus musculus [5], with Mus musculus [6], with Mus musculus [7], in the assay with Mus musculus [10] and in the assay with Mus musculus [11] was Active.

As a reminder, the pIC50 is −log10 of the IC50, conventionally taken in molar units.
